This note sets out measurements from patent publication US5710166A, “N-acyl beta amino acid derivatives useful as platelet aggregation inhibitors” (The Monsanto Company, priority 1995, dated 1998).

This experiment has as its system platelet aggregation (Dog PRP). The experiment is described as follows: In-Vitro Platelet Aggregation in PRP (ADP-induced, dog platelet-rich plasma). It counts as cell-based. To be noted: Canis lupus familiaris, ADP 50 um final concentration; for IC50: linear regression of dose response curve, read-out: IC50 (dosage at which 50% of platelet aggregation is inhibited). The procedure: Healthy male or female dogs were fasted for 8 hours prior to drawing blood; then 30 ml whole blood was collected using a butterfly needle and 30 cc plastic syringe with 3 ml or 0.129M buffered sodium citrate (3.8%). The syringe was rotated carefully as blood was drawn to mix the citrate. Platelet-rich plasma (PRP) was prepared by centrifugation at 975 x g for 3.17 minutes at room temperature allowing the centrifuge to coast to a stop without braking. The PRP was removed from the blood with a plastic pipette and placed in a plastic capped, 50 mL Corning conical sterile centrifuge tube which was held at room temperature. Platelet poor plasma (PPP) was prepared by centrifuging the remaining blood at 2000 x g for 15 minutes at room temperature allowing the centrifuge to coast to a stop without braking. The PRP was adjusted with PPP to a count of 2-3×10^8 platelets per mL. 400 uL of the PRP preparation and 50 uL of the compounds solution to be tested or saline were preincubated for 1 minute at 37° C. in a […].). 50 uL of adenosine 5' diphosphate (ADP) (50 um final concentration) was added to the cuvettes and the aggregation was monitored for 1 minute. All compounds are tested in duplicate. Results are calculated as follows: Percent of control=[(maximal OD minus initial OD of compound) divided by (maximal OD minus initial OD of control saline)]×100. The % inhibition=100-(percent of control).
The compounds tested and their median inhibitory concentrations (IC50) are recorded in Table I. IC50 's (dosage at which 50% of platelet aggregation is inhibited) were calculated by linear regression of the dose response curve.

Regarding `N=C(N)c1ccc(CNc2cccc(C(=O)NC(CC(=O)O)c3cccnc3)c2)cc1` (stereo not drawn) [Example 4, β-[[3-[4-(aminoiminomethyl)benzyl]aminobenzoyl]amino]-3-pyridinepropanoic acid], the IC50 is 6.8 µM.

For the compound `N=C(N)c1ccc(CNCCC(=O)NC(CC(=O)O)c2cccnc2)cc1` (stereo not drawn) [Example 6, β-[[3-[4-(aminoiminomethyl)benzyl]aminopropanoyl]amino]-3-pyridinepropanoic acid], the IC50 was found to be 0.8 µM.

`N=C(N)c1ccc(CNc2cccc(C(=O)NCCC(=O)O)c2)cc1` [Example 2, β-[[3-[4-(aminoiminomethyl)benzyl]aminobenzoyl]amino]propanoic acid]: the inhibition at 10 µM (compound at 10^-5 M, read-out: % Inh. (inhibition of platelet aggregation)) amounted to 28%.
